Legend:
Assay type in all cases: functional
[1] = Growth inhibition of human NCI-ADR-RES cells assessed as cell growth at 5X10'-6 M after 48 hrs by sulforhodamine B assay; conditions: read-out: Activity
UO-31 [2] = assay: Growth inhibition of human UO31 cells assessed as cell growth at 5X10'-6 M after 48 hrs by sulforhodamine B assay; conditions: UO-31, 48 h, read-out: Activity
NCI-H226 = assay: Growth inhibition of human NCI-H226 cells assessed as cell growth at 3X10'-8 M after 48 hrs by sulforhodamine B assay; conditions: NCI-H226, 48 h, read-out: Activity
OVCAR-3 = assay: Growth inhibition of human OVCAR3 cells assessed as cell growth at 3X10'-8 M after 48 hrs by sulforhodamine B assay; conditions: OVCAR-3, 48 h, read-out: Activity
HL-60(TB) = assay: Growth inhibition of human HL-60(TB) cells assessed as cell growth at 3X10'-8 M after 48 hrs by sulforhodamine B assay; conditions: HL-60, 48 h, read-out: Activity
HOP-62 = assay: Growth inhibition of human HOP62 cells assessed as cell growth at 3X10'-9 M after 48 hrs by sulforhodamine B assay; conditions: HOP-62, 48 h, read-out: Activity
BT-549 [3] = assay: Growth inhibition of human BT549 cells assessed as cell growth at 3X10'-5 M after 48 hrs by sulforhodamine B assay; conditions: BT-549, 48 h, read-out: Activity
OVCAR-5 [4] = assay: Growth inhibition of human OVCAR5 cells assessed as cell growth at 3X10'-9 M after 48 hrs by sulforhodamine B assay; conditions: OVCAR-5, 48 h, read-out: Activity
UACC-62 = assay: Growth inhibition of human UACC62 cells assessed as cell growth at 3X10'-5 M after 48 hrs by sulforhodamine B assay; conditions: UACC-62, 48 h, read-out: Activity
HCT-116 [5] = assay: Growth inhibition of human HCT116 cells assessed as cell growth at 3X10'-6 M after 48 hrs by sulforhodamine B assay; conditions: HCT-116, 48 h, read-out: Activity
K562 = assay: Growth inhibition of human K562 cells assessed as cell growth at 3X10'-9 M after 48 hrs by sulforhodamine B assay; conditions: K562, 48 h, read-out: Activity
BT-549 [6] = assay: Growth inhibition of human BT549 cells assessed as cell growth at 3X10'-7 M after 48 hrs by sulforhodamine B assay; conditions: BT-549, 48 h, read-out: Activity
PC-3 = assay: Growth inhibition of human PC3 cells assessed as cell growth at 3X10'-5 M after 48 hrs by sulforhodamine B assay; conditions: PC-3, 48 h, read-out: Activity
CAKI-1 [7] = assay: Growth inhibition of human CAKI-1 cells assessed as cell growth at 3X10'-5 M after 48 hrs by sulforhodamine B assay; conditions: CAKI-1, 48 h, read-out: Activity
M14 = assay: Growth inhibition of human M14 cells assessed as cell growth at 3X10'-6 M after 48 hrs by sulforhodamine B assay; conditions: M14, 48 h, read-out: Activity
[8] = Growth inhibition of human NCI-ADR-RES cells assessed as cell growth at 3X10'-6 M after 48 hrs by sulforhodamine B assay; conditions: read-out: Activity
CAKI-1 [9] = assay: Growth inhibition of human CAKI-1 cells assessed as cell growth at 3X10'-9 M after 48 hrs by sulforhodamine B assay; conditions: CAKI-1, 48 h, read-out: Activity
HT-29 [10] = assay: Growth inhibition of human HT-29 cells assessed as cell growth at 3X10'-5 M after 48 hrs by sulforhodamine B assay; conditions: HT-29, 48 h, read-out: Activity
T47D = assay: Growth inhibition of human T47D cells assessed as cell growth at 3X10'-9 M after 48 hrs by sulforhodamine B assay; conditions: read-out: Activity
DU-145 [11] = assay: Growth inhibition of human DU145 cells assessed as cell growth at 3X10'-9 M after 48 hrs by sulforhodamine B assay; conditions: DU-145, 48 h, read-out: Activity
UO-31 [12] = assay: Growth inhibition of human UO31 cells assessed as cell growth at 3X10'-8 M after 48 hrs by sulforhodamine B assay; conditions: UO-31, 48 h, read-out: Activity
DU-145 [13] = assay: Growth inhibition of human DU145 cells assessed as cell growth at 3X10'-8 M after 48 hrs by sulforhodamine B assay; conditions: DU-145, 48 h, read-out: Activity
HOP-92 = assay: Growth inhibition of human HOP92 cells assessed as cell growth at 3X10'-9 M after 48 hrs by sulforhodamine B assay; conditions: HOP-92, 48 h, read-out: Activity
OVCAR-4 [14] = assay: Growth inhibition of human OVCAR4 cells assessed as cell growth at 3X10'-7 M after 48 hrs by sulforhodamine B assay; conditions: OVCAR-4, 48 h, read-out: Activity
MOLT-4 [15] = assay: Growth inhibition of human MOLT4 cells assessed as cell growth at 3X10'-9 M after 48 hrs by sulforhodamine B assay; conditions: MOLT-4, 48 h, read-out: Activity
HCT-116 [16] = assay: Growth inhibition of human HCT116 cells assessed as cell growth at 3X10'-5 M after 48 hrs by sulforhodamine B assay; conditions: HCT-116, 48 h, read-out: Activity
NCI-H322M = assay: Growth inhibition of human NCI-H322M cells assessed as cell growth at 3X10'-5 M after 48 hrs by sulforhodamine B assay; conditions: read-out: Activity
OVCAR-5 [17] = assay: Growth inhibition of human OVCAR5 cells assessed as cell growth at 3X10'-7 M after 48 hrs by sulforhodamine B assay; conditions: OVCAR-5, 48 h, read-out: Activity
SNB-19 = assay: Growth inhibition of human SNB19 cells assessed as cell growth at 3X10'-7 M after 48 hrs by sulforhodamine B assay; conditions: SNB-19, 48 h, read-out: Activity
SR = assay: Growth inhibition of human SR cells assessed as cell growth at 3X10'-8 M after 48 hrs by sulforhodamine B assay; conditions: read-out: Activity
SK-MEL-5 = assay: Growth inhibition of human SK-MEL-5 cells assessed as cell growth at 3X10'-8 M after 48 hrs by sulforhodamine B assay; conditions: SK-MEL-5, 48 h, read-out: Activity
NCI-H460 = assay: Growth inhibition of human NCI-H460 cells assessed as cell growth at 3X10'-5 M after 48 hrs by sulforhodamine B assay; conditions: NCI-H460, 48 h, read-out: Activity
HT-29 [18] = assay: Growth inhibition of human HT-29 cells assessed as cell growth at 3X10'-6 M after 48 hrs by sulforhodamine B assay; conditions: HT-29, 48 h, read-out: Activity
OVCAR-4 [19] = assay: Growth inhibition of human OVCAR4 cells assessed as cell growth at 3X10'-6 M after 48 hrs by sulforhodamine B assay; conditions: OVCAR-4, 48 h, read-out: Activity
NCI-H522 = assay: Growth inhibition of human NCI-H522 cells assessed as cell growth at 3X10'-8 M after 48 hrs by sulforhodamine B assay; conditions: NCI-H522, 48 h, read-out: Activity
U-251 = assay: Growth inhibition of human U251 cells assessed as cell growth at 3X10'-8 M after 48 hrs by sulforhodamine B assay; conditions: U-251, 48 h, read-out: Activity
DU-145 [20] = assay: Growth inhibition of human DU145 cells assessed as cell growth at 3X10'-6 M after 48 hrs by sulforhodamine B assay; conditions: DU-145, 48 h, read-out: Activity
MOLT-4 [21] = assay: Growth inhibition of human MOLT4 cells assessed as cell growth at 3X10'-5 M after 48 hrs by sulforhodamine B assay; conditions: MOLT-4, 48 h, read-out: Activity

SMILES: O=C(Nc1cccc(-n2cc(-c3ccncc3)c(-c3ccc(Cl)c(O)c3)n2)c1)c1ccc(N2CCOCC2)c(C(F)(F)F)c1
- growth at 5 µM [1]: 35%
- growth at 5 µM (UO-31 [2]): 25%

SMILES: O=C(Nc1cccc(-n2cc(-c3ccncc3)c(-c3ccc(Cl)c(O)c3)n2)c1)Nc1cc(C(F)(F)F)cc(C(F)(F)F)c1
- growth at 5 µM [1]: 1%
- growth at 5 µM (UO-31 [2]): -45%

SMILES: COc1cc(-c2nn(-c3cccc(NC(=O)c4cccc(C(F)(F)F)c4)c3)cc2-c2ccncc2)ccc1Cl
- growth at 5 µM [1]: -21%
- growth at 5 µM (UO-31 [2]): 20%

SMILES: COc1cc(-c2nn(-c3cccc(NC(=O)Nc4cc(C(F)(F)F)cc(C(F)(F)F)c4)c3)cc2-c2ccncc2)ccc1Cl
- growth at 5 µM (UO-31 [2]): -90%

SMILES: COc1cc(-c2nn(-c3cccc(NC(=O)c4ccc(Cl)c(C(F)(F)F)c4)c3)cc2-c2ccncc2)ccc1Cl
- growth at 0.03 µM (NCI-H226): 92%
- growth at 0.03 µM (OVCAR-3): 104%
- growth at 0.03 µM (HL-60(TB)): 113%
- growth at 0.003 µM (HOP-62): 98%
- growth at 30 µM (BT-549 [3]): 29%
- growth at 0.003 µM (OVCAR-5 [4]): 96%
- growth at 30 µM (UACC-62): 20%
- growth at 3 µM (HCT-116 [5]): 44%
- growth at 0.003 µM (K562): 99%
- growth at 0.3 µM (BT-549 [6]): 95%
- growth at 30 µM (PC-3): 11%
- growth at 30 µM (CAKI-1 [7]): 12%
- growth at 3 µM (M14): 47%
- growth at 3 µM [8]: 22%
- growth at 0.003 µM (CAKI-1 [9]): 93%
- growth at 30 µM (HT-29 [10]): 3%
- growth at 0.003 µM (T47D): 95%
- growth at 0.003 µM (DU-145 [11]): 100%
- growth at 0.03 µM (UO-31 [12]): 80%
- growth at 0.03 µM (DU-145 [13]): 100%
- growth at 0.003 µM (HOP-92): 94%
- growth at 0.3 µM (OVCAR-4 [14]): 89%
- growth at 0.003 µM (MOLT-4 [15]): 100%
- growth at 30 µM (HCT-116 [16]): 18%
- growth at 30 µM (NCI-H322M): 34%
- growth at 0.3 µM (OVCAR-5 [17]): 90%
- growth at 0.3 µM (SNB-19): 97%
- growth at 0.03 µM (SR): 98%
- growth at 0.03 µM (SK-MEL-5): 97%
- growth at 30 µM (NCI-H460): 7%
- growth at 3 µM (HT-29 [18]): 51%
- growth at 3 µM (OVCAR-4 [19]): 62%
- growth at 0.03 µM (NCI-H522): 94%
- growth at 0.03 µM (U-251): 99%
- growth at 3 µM (DU-145 [20]): 67%
- growth at 30 µM (MOLT-4 [21]): 24%

SMILES: COc1cc(-c2nn(-c3cccc(NC(=O)Nc4ccc(Cl)c(Cl)c4)c3)cc2-c2ccncc2)ccc1Cl
- growth at 5 µM [1]: -2%

SMILES: COc1cc(-c2nn(-c3cccc(NC(=O)Nc4cccc(C(F)(F)F)c4)c3)cc2-c2ccncc2)ccc1Cl
- growth at 5 µM [1]: -10%
- growth at 5 µM (UO-31 [2]): -15%

SMILES: O=C(Nc1cccc(-n2cc(-c3ccncc3)c(-c3ccc(Cl)c(O)c3)n2)c1)Nc1ccc(Cl)c(Cl)c1
- growth at 0.03 µM (NCI-H226): 97%
- growth at 0.03 µM (OVCAR-3): 100%
- growth at 0.03 µM (HL-60(TB)): 101%
- growth at 0.003 µM (HOP-62): 96%
- growth at 30 µM (BT-549 [3]): -12%
- growth at 0.003 µM (OVCAR-5 [4]): 96%
- growth at 30 µM (UACC-62): -53%
- growth at 3 µM (HCT-116 [5]): 13%
- growth at 0.003 µM (K562): 100%
- growth at 0.3 µM (BT-549 [6]): 106%
- growth at 30 µM (PC-3): 1%
- growth at 30 µM (CAKI-1 [7]): -9%
- growth at 3 µM (M14): 14%
- growth at 3 µM [8]: 46%
- growth at 0.003 µM (CAKI-1 [9]): 93%
- growth at 30 µM (HT-29 [10]): 3%
- growth at 0.003 µM (T47D): 97%
- growth at 0.003 µM (DU-145 [11]): 104%
- growth at 0.03 µM (UO-31 [12]): 92%
- growth at 0.03 µM (DU-145 [13]): 100%
- growth at 0.003 µM (HOP-92): 98%
- growth at 0.3 µM (OVCAR-4 [14]): 105%
- growth at 0.003 µM (MOLT-4 [15]): 98%
- growth at 30 µM (HCT-116 [16]): -39%
- growth at 30 µM (NCI-H322M): 11%
- growth at 0.3 µM (OVCAR-5 [17]): 104%
- growth at 0.3 µM (SNB-19): 101%
- growth at 0.03 µM (SR): 98%
- growth at 0.03 µM (SK-MEL-5): 96%
- growth at 30 µM (NCI-H460): -58%
- growth at 3 µM (HT-29 [18]): 60%
- growth at 3 µM (OVCAR-4 [19]): 28%
- growth at 0.03 µM (NCI-H522): 94%
- growth at 0.03 µM (U-251): 100%
- growth at 3 µM (DU-145 [20]): 22%
- growth at 30 µM (MOLT-4 [21]): 6%

— ChEMBL document CHEMBL2440076, “New triarylpyrazoles as broad-spectrum anticancer agents: design, synthesis, and biological evaluation” (Eur J Med Chem, 2013)
